# Reference: patent US20250302846A1, “ANTIBIOTIC COMPOSITION AND METHODS OF USE THEREOF” (THE REGENTS OF THE UNIVERSITY OF COLORADO A BODY CORPORATE, priority 2022, published 2025)
# Several values for one entry are separate records, joined by “and”; a condition that tells them apart may be missing. Identical values can stand only once. Like-named read-outs stand apart in the source and are kept apart here.
# Columns and labels:
# Format in all cases: cell-based
# [1] = tested on: S. Typhimurium SL1344 or 14028 in RAW 264.7 cells; assay: CFU assay in infected RAW 264.7 macrophages; settings: for IC50: Salmonella enterica, TYPHIMURIUM
# Protocol: FIG. 1A-D. D66 is a small molecule that prevents S. Typhimurium replication and/or survival in macrophages. A). Structure of D66. B) RAW264.7 macrophage-like cells were infected with S. Typhimurium harboring a chromosomal sifB: : gfp reporter, treated with DMSO or D66 at two hours after infection, and monitored for bacterial accumulation (GFP+Macrophage Area) over 16 hours using the SAFIRE (Screen for Anti-infectives using Fluorescence microscopy of Intracellular Enterobacteriaceae) assay. The IC50 value is indicated. Mean and SD of biological duplicates with technical duplicates across 9 dilutions of D66. C, D) CFU assays were performed with RAW264.7 or HeLa cells infected with S. Typhimurium SL1344 or 14028 for two hours and treated for 16 hours with DMSO or 1.5-fold dilutions of D66, prior to lysis and plating for CFU. Symbols on the Y-axes are the CFU value from DMSO-treated samples. The IC50 values are indicated. Mean and SEMs of biological triplicates with technical duplicates across 8 dilutions of D66.
# CFU assays were performed with RAW 264.7 cells seeded as above or with Hela cells (ATCC CCL-2) seeded at 1x10^4 cells per 96-well. Cells were infected as described above with either S. Typhimurium SL1344 or 14028, as indicated at an approximate MOI of 30 bacteria per RAW 264.7 cell and 150 bacteria per HeLa cell. Plates were centrifuged and gentamicin treated as above. At 18 hours after infection, wells were washed twice with PBS and lysed with 30 μL 0.1% Triton X-100 in PBS for five minutes. Lysed cells were plated to L-agar and enumerated for CFU.
# S. Typhimurium = assay: Bacterial membrane potential assay with DiSC3(5); settings: mid-log cells in LB with PMB [0.5 μg/mL]; corrected for quenching by D66; JD1 [70 μM]
# Protocol: FIG. 3A-F. D66 rapidly perturbs the bacterial cytoplasmic membrane with minor disruption of barrier function. Mid-log phase S. Typhimurium cells grown in LB with 0.5 μg/mL PMB were used for all experiments. A) Cell membrane potential was monitored with the fluorescent dye DiSC3 (5). Cells were treated at time 0 with DMSO, JD1 [70 μM], or D66. Data were normalized to DMSO at time 0 and corrected for the quenching effect of D66 (FIG. 6A, B) B) Cell membrane permeability was monitored by PI fluorescence. Cells were treated at time 0 with DMSO, SDS [0.005%] or D66. Samples were processed at the time points shown. A one-way ANOVA with a Dunnet's multiple comparison test, * P<0.005. C-F) Growth curves and kill-curves of cells treated at time 0 with either DMSO or D66. Culture aliquots were monitored for OD600 (C, E) or plated for enumeration of CFU (D, F). Data are presented as fold change. Mean and SEM of three biological replicates with technical triplicates are shown in all panels.
# Bacterial Membrane potential assays: Membrane potential was measured using the potentiometric fluorescent probe DiSC3 (5) (Invitrogen). Mid-log phase cells were diluted to an OD600 of 0.4. […] Plates were monitored (ex650/em680 nm) on a BioTek Synergy H1 plate reader. After baseline fluorescence was recorded, compound was added to the desired final concentration and measurements were recorded for an additional 30 minutes. […]
# staphylococcal strains = assay: MIC95 quoted for staphylococcal persister and biofilm experiments; settings: staphylococcal strains; read-out: MIC95
# Protocol: A-D) Overnight cultures of the indicated strains were treated at time 0 with DMSO, ciprofloxacin [4 μg/mL], vancomycin [10 μg/mL], or the corresponding MIC95 concentration of D66 (1x MIC95=130 μM, 49 μg/mL). Cultures were plated for enumeration of CFU at time points indicated. Mean and SEM of three biological replicates. E) RAW 264.7 macrophage-like cells and HeLa cells were infected with S. aureus USA300, at MOIs of 0.5 and 2.5, respectively. Cells were treated two hours after infection with DMSO (gray circle on Y axis), or dilutions of D66 from 40 μM. After 8 hours of infection, cells were lysed and plated for enumeration of CFU. Mean and SEM of biological duplicates performed with technical triplicates each with six dilutions of D66. The IC50 value that was calculatable is indicated.
# Biofilm formation was monitored after 18 hours in TSB with subinhibitory concentrations of DMSO, rifampin (1x MIC95=0.05 μg/mL), vancomycin (1x MIC95=1 μg/mL), or D66 (1x MIC95=130 μM). A-D) Crystal violet staining for accumulated biofilm mass measured at A595. Mean and […]
# staphylococcal biofilm = assay: Staphylococcal biofilm formation; settings: 18 hours in TSB, subinhibitory concentrations
# Protocol: Biofilm formation was monitored after 18 hours in TSB with subinhibitory concentrations of DMSO, rifampin (1x MIC95=0.05 μg/mL), vancomycin (1x MIC95=1 μg/mL), or D66 (1x MIC95=130 μM). A-D) Crystal violet staining for accumulated biofilm mass measured at A595. Mean and
# SEM of three biological replicates performed with technical triplicates. E-F). Biofilms were stained with Syto 9 (live cells) and PI (damaged/dead cells) and imaged with confocal fluorescent microscopy. Volume of live, dead, and total cell volume was calculated (positive volume=positive voxel; 1 voxel=0.0367 μm3). Asterisks indicate P≤0.05 as determined by one-way ANOVA compared to DMSO. Mean and SDs derived from a minimum of four fields of view each from two biological replicates.
structure (smiles),measurement,setting,value
O=C(Nc1cc(Cl)cc(Cl)c1)N1CCCN(Cc2ccccc2)CC1 [D66],IC50,"[1]; RAW264.7, 16 h, S. Typhimurium 14028 in macrophages, treated 16 hours, read-out: CFU IC50",4.9 µM
same,IC50,"[1]; RAW264.7, 16 h, S. Typhimurium SL1344 in macrophages, treated 16 hours, read-out: CFU IC50",7.7 µM
same,IC50,"[1]; RAW264.7, as quoted for dose selection, read-out: IC50 of D66 against S. Typhimurium in macrophages",~7.8 µM
same,CFU reduction,[1]; macrophages,> 1000 fold
same,DiSC3(5) fluorescence (membrane voltage),S. Typhimurium,rapidly increased the fluorescence of DiSC3 (5) in a dose-dependent manner
same,MIC,staphylococcal strains,130 µM and 49 µg/mL
same,staphylococcal biofilm formation,staphylococcal biofilm,inhibits staphylococcal biofilm formation
